Measured values taken from publication PMC11270681, “Synthesis and Systematic Investigation of Lepidiline A and Its Gold(I), Silver(I), and Copper(I) Complexes Using In Vitro Cancer Models and Multipotent Stem Cells” (ACS Omega, 2024).
Several values for one entry are separate records, joined by “and”; a condition that tells them apart may be missing. Equal values may be shown once.

Legend:
IGROV-1 = experiment: Cytotoxicity (PrestoBlue), ovarian cancer line; type: cell-based; conditions: IGROV-1, 72 h incubation
Method: (§1) OVCAR-3 (OVC-3) and OVCAR-8 (OVC-8) ovarian serous adenocarcinomas, IGROV-1 ovarian endometrioid adenocarcinoma, OVCAR-5 (OVC-5) upper gastrointestinal carcinoma, MDA-MB-231 breast adenocarcinoma, and MCF-7 and T-47D invasive breast carcinomas were purchased from the Developmental Therapeutic Program of the National Cancer Institute (NIH, USA) and were cultured in an RPMI medium (Thermo Fisher). Mes-Sa and Mes-Sa/Dx5 uterine sarcoma cell lines were purchased from American Type Culture Collection (ATCC) and were kept in DMEM (Thermo Fisher). Mes-Sa B1 was transfected with the human MDR1 gene, and Mes-Sa mCherry, Mes-Sa B1 mOrange, and Mes-Sa/Dx5 eGFP were engineered to stably express the respective fluorescent proteins previously.[51] Culture media for cancer cells were supplemented with 10% fetal bovine serum, 2 mM L-glutamine, and 100 units/mL penicillin and 100 μg/mL streptomycin (Thermo Fisher). The adipose tissue and bone marrow-derived mesenchymal stem cells (AD-MSC and BM-MSC) were described previously[37] and were kept in DMEM-F12 (Gibco) supplemented with 10% fetal bovine serum, L-glutamine (Thermo Fisher), 0.1% gentamicin (Gibco, 50 mg/mL), and 16 ng/mL fibroblast growth factor 2 (Peprotech). Cells were kept at 37 °C under 5% CO2 and were negative for mycoplasma infection.
(§2) Cytotoxicities of the nonfluorescent cancer cells were assessed with a PrestoBlue cell viability reagent (Thermo Fisher). Briefly, 2500 cells/well were seeded on 384-well plates; then, the next-day drugs were added. After 72 h of incubation, PrestoBlue was added in a 10% final concentration, and after an hour of additional incubation, plates were measured with a PerkinElmer EnSpire plate reader at 555 nm/585 nm excitation/emission wavelengths. Stem cells were seeded on 96-well plates at a density of 5000 cells/well, and the following day, drugs were added for 96 h of incubation; then, viability was assessed with 10% PrestoBlue diluted in PBS. Fluorescent cancer cells were admixed before seeding on 384-well plates at an 800 cells/well density each, thus altogether 2400 cells/well. Drugs were added the following day, and the intensity of the fluorescent proteins was measured after 144 h of incubation at the respective fluorescent channels (excitation/emission, eGFP: 485 nm/510 nm; mCherry: 585 nm/610 nm; mOrange: 545 nm/567 nm). pIC50 values were calculated by a custom program written by Judit Sessler in C#. IC50 values and standard deviation were calculated from average pIC50 values from at least 3 independent measurements.

OVC-3 = experiment: Cytotoxicity (PrestoBlue), ovarian cancer line; type: cell-based; conditions: OVC-3, 72 h incubation
Method: as §1, §2

OVC-8 = experiment: Cytotoxicity (PrestoBlue), ovarian cancer line; type: cell-based; conditions: OVC-8, 72 h incubation
Method: as §1, §2

OVC-5 = experiment: Cytotoxicity (PrestoBlue), upper gastrointestinal cancer line; type: cell-based; conditions: OVC-5, 72 h incubation, PrestoBlue
Method: as §1, §2

MCF-7 [1] = experiment: Cytotoxicity (PrestoBlue), breast cancer line; type: cell-based; conditions: MCF-7, 72 h incubation
Method: as §1, §2

MDA-MB-231 = experiment: Cytotoxicity (PrestoBlue), breast cancer line; type: cell-based; conditions: MDA-MB-231, 72 h incubation
Method: as §1, §2

T-47D [2] = experiment: Cytotoxicity (PrestoBlue), breast cancer line; type: cell-based; conditions: 72 h incubation
Method: as §1, §2

Mes-Sa [3] = experiment: Cytotoxicity, uterine sarcoma parental line; type: cell-based; conditions: fluorescent protein intensity after 144 h
Method: as §1, §2

Mes-Sa B1 = experiment: Cytotoxicity, MDR1-transfected uterine sarcoma line; type: cell-based; conditions: Mes-Sa B1 (MDR1 transfected, ABCB1 expressing), fluorescent protein intensity after 144 h
Method: as §1, §2

Mes-Sa/Dx5 = experiment: Cytotoxicity, doxorubicin-selected MDR uterine sarcoma line; type: cell-based; conditions: Mes-Sa/Dx5 (doxorubicin selected, ABCB1 expressing), fluorescent protein intensity after 144 h
Method: as §1, §2

AD-MSC = experiment: Cytotoxicity (PrestoBlue), adipose-derived mesenchymal stem cells; type: cell-based; conditions: 96 h incubation
Method: as §1, §2

BM-MSC = experiment: Cytotoxicity (PrestoBlue), bone marrow-derived mesenchymal stem cells; type: cell-based; conditions: 96 h incubation
Method: as §1, §2

im. BM-MSC = experiment: Cytotoxicity (PrestoBlue), immortalized bone marrow MSC; type: cell-based; conditions: 96 h incubation
Method: as §1, §2

[4] = tested on: 3 breast cancer cell lines (MDA-MB-231, MCF-7 and T-47D); experiment: Cytotoxicity, range over 3 breast cancer cell lines; type: cell-based; conditions: MDA-MB-231, MCF-7, T-47D
Method: as §1, §2

[5] = tested on: Bone marrow MSCs (BM-MSC); experiment: Cytotoxicity, range over bone marrow MSCs; type: cell-based; conditions: BM-MSC and immortalized BM-MSC
Method: as §1, §2

MCF-7 [6] = experiment: H2DCFDA intracellular ROS production assay; type: cell-based; conditions: MCF-7, 50 μM, 4 h incubation, vs medium
Method: (§3) To assess intracellular ROS production, we used a H2DCFDA cellular ROS assay kit (ab113851, Abcam) according to the manufacturer’s instructions. Briefly, 20,000 cells were seeded on 96-well plates. On the following day, cells were washed, and H2DCFDA solution, prepared by avoiding direct light, was added for 45 min. Next, cells were washed, and 50 μM samples of test compounds were aspirated on the cells in a complete and phenol red-free medium (FluoroBrite, Thermo Fisher). At each hour, fluorescence of 2′,7′-dichlorofluorescein (DCF) was measured at 484 nm/535 nm excitation/emission wavelengths. Values were normalized to 0 h measurements. Values indicate at least 3 independent measurements.

Mes-Sa [7] = experiment: H2DCFDA intracellular ROS production assay; type: cell-based; conditions: 50 μM, 4 h incubation, vs medium
Method: as §3

T-47D [8] = experiment: H2DCFDA intracellular ROS production assay; type: cell-based; conditions: 50 μM, 4 h incubation, vs medium
Method: as §3

[9] = Stability in serum-free culture medium by HPLC-UV; type: physicochemical; conditions: for AUC (HPLC-UV), single measurements 1-5 / AUC (HPLC-UV), average: serum-free culture medium
Method: Stability of the metal complexes in solution was measured in serum-free culture medium. The compounds were dissolved in DMSO right before the experiment. Solutions of Cu-LA and Ag-LA contained 1% final volume of DMSO, while Au-LA contained 30% DMSO. Samples were taken right after dilution, and after 1 h, 2 h, 4 h, 8 h, 16 h, 32 and 48 h, and measured by HPLC-UV.

HL-60 leukemia line = tested on: HL-60 leukemia line; set-up: method as in PMID 34808062; conditions: cited from earlier work

Compound | IC50 (IGROV-1) | IC50 (OVC-3) | IC50 (OVC-8) | IC50 (OVC-5) | IC50 (MCF-7 [1]) | IC50 (MDA-MB-231) | IC50 (T-47D [2]) | IC50 (Mes-Sa [3]) | IC50 (Mes-Sa B1) | IC50 (Mes-Sa/Dx5) | IC50 (AD-MSC) | IC50 (BM-MSC) | IC50 (im. BM-MSC) | IC50 [5] | other results
N.N.[Cl][Pt][Cl] [Cisplatin, cisplatin, reference compound] | 2.19 µM | 6.64 µM | 6.34 µM | 7 µM | 2.71 µM | 2.17 µM | 5.99 µM | 1.84 µM | 2.09 µM | 4.71 µM | 16.7 µM | 2.32 µM | 1.97 µM | 2 to 2.3 µM | IC50 [4]: 2.2 to 6 µM
Cc1c(C)n(Cc2ccccc2)[c](=[Cu][Cl])n1Cc1ccccc1 [Cu-LA, Chloro-(1,3-dibenzyl-4,5-dimethyl-imidazol-2-ylidene)copper] | 72.9 µM | 58.5 µM | 67.6 µM | 104 µM | 41.3 µM | 62.5 µM | 24.8 µM | 18.5 µM | > 100 µM | 76.6 µM | 23.7 µM | 98.3 µM | 75.4 µM | 48 to 98 µM | Higher intracellular ROS formation (MCF-7 [6]): 2–3 fold; Higher intracellular ROS formation (Mes-Sa [7]): 2–3 fold; Higher intracellular ROS formation (T-47D [8]): 2–3 fold; AUC (HPLC-UV), single measurements 1-5 ([9]; 0 h): 1030 and 1011 and 1021 and 1023 and 1047; AUC (HPLC-UV), average ([9]; 0 h, Cu-LA, Ag-LA 1% DMSO, Au-LA 30% DMSO): 1026; AUC (HPLC-UV), average ([9]; 1 h): 1019; AUC (HPLC-UV), single measurements 1-5 ([9]; 1 h): 1022 and 1016 and 1021 and 1017; AUC (HPLC-UV), average ([9]; 2 h): 1022; AUC (HPLC-UV), single measurements 1-5 ([9]; 2 h): 1021 and 1020 and 1022 and 1023; AUC (HPLC-UV), average ([9]; 4 h): 1042; AUC (HPLC-UV), single measurements 1-5 ([9]; 4 h): 1040 and 1041 and 1043 and 1044; AUC (HPLC-UV), average ([9]; 8 h): 1044; AUC (HPLC-UV), single measurements 1-5 ([9]; 8 h): 1045 and 1042 and 1044 and 1046; AUC (HPLC-UV), average ([9]; 16 h): 1042; AUC (HPLC-UV), single measurements 1-5 ([9]; 16 h): 1039 and 1042 and 1046; AUC (HPLC-UV), average ([9]; 32 h): 1038; AUC (HPLC-UV), single measurements 1-5 ([9]; 32 h): 1030 and 1041 and 1038 and 1042 and 1039; AUC (HPLC-UV), average ([9]; 48 h): 1039; AUC (HPLC-UV), single measurements 1-5 ([9]; 48 h): 1038 and 1039 and 1040; Stability in serum-free culture medium ([9]; HPLC-UV, observed 48 h): stable
COc1cccc(C[n+]2c(C)c(C)n(Cc3ccccc3)c2C)c1 [lepidiline D] |  |  |  |  |  |  |  |  |  |  |  |  |  |  | IC50 (HL-60 leukemia line): 1.1 µM
